Experimental data as given in patent publication US20260242419A1, “A CYCLIC PEPTIDE FOR TRAPPING INTERLEUKIN-1 BETA” (Merck Sharp & Dohme LLC, priority 2023, published 2026).
Starred links: 1 amine or outer side, 2 acyl side, 3 side chain; linkers in the order of their positions; H or OH if unused. Non-standard residues stand in square brackets, D forms with d. Residues, ends and D or L forms follow the SMILES beside them. dPro(4R-(4-pyridylmethyl)) = O=C(O)[C@H]1C[C@@H](Cc2ccncc2)CN1; Ala(piperidin-4-yl) = O=C([C@H](CC1CCN([*:3])CC1)N[*:1])[*:2]; Trp(βS-Me,4-F) = C[C@@H](c1c[nH]c2cccc(F)c12)[C@H](N)C(=O)O; Bip(4'-COOH) = N[C@@H](Cc1ccc(-c2ccc(C(=O)O)cc2)cc1)C(=O)O; dPro(4R-Bzl(4-F)) = O=C(O)[C@H]1C[C@@H](Cc2ccc(F)cc2)CN1; X4 = O=C([C@H]1[C@@H](Cc2ccncc2)CCN1[*:1])[*:2]; Ala(morpholin-4-yl) = N[C@@H](CN1CCOCC1)C(=O)O; Ala(pyrimidin-5-yl) = N[C@@H](Cc1cncnc1)C(=O)O; Phe(4-COOH) = N[C@@H](Cc1ccc(C(=O)O)cc1)C(=O)O; Ala(4-Pyridazinyl) = N[C@@H](Cc1ccnnc1)C(=O)O; Ala(2-pyrazinyl) = N[C@@H](Cc1cnccn1)C(=O)O; Pro(cis-4-F) = O=C(O)[C@@H]1C[C@H](F)CN1; AEF = NCCOc1ccc(C[C@H](N)C(=O)O)cc1; cisHyp = O=C(O)[C@@H]1C[C@H](O)CN1; d(αMeD) = C[C@@](N)(CC(=O)O)C(=O)O; h4Pal = N[C@@H](CCc1ccncc1)C(=O)O; 3Pal = N[C@@H](Cc1cccnc1)C(=O)O; 4Pal = N[C@@H](Cc1ccncc1)C(=O)O; Dab = NCC[C@H](N)C(=O)O; Aib = CC(C)(N)C(=O)O

Target: T1, IL-1β (Homo sapiens, UniProt P01584)
T1 construct: purchased BioLegend 579404
T1 sequence (P01584 117-269): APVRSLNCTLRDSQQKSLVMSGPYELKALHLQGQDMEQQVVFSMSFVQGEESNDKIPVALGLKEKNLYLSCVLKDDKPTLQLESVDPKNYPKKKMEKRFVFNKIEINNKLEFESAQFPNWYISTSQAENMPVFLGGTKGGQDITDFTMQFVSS
Assay: IL-6 assay in MRC5 cells: inhibition of IL-1β induced IL-6 secretion (AlphaLISA)
Type: cell-based
Settings: inhibition of IL-1β induced IL-6 secretion in MRC5 cells; read-out: MRC5 IC50
Summary of the method: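 Compound was pre-incubated 1 h at ambient temperature with recombinant human IL-1β at 2λ EC80 before adding human lung fibroblast MRC5 cells (3000/well) in EMEM with 0.025% BSA. After overnight culture at 37 °C, 5% CO2, secreted IL-6 in conditioned medium was measured by AlphaLISA; IC50 from 4-parameter logistic fits.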

IC50 [nM] | Compound
0.015 | CC(=O)NCCOc1ccc(C[C@@H]2NC(=O)[C@H]3C[C@@H](Cc4ccncc4)CN3C(=O)CNC(=O)[C@H](CCN)NC(=O)[C@H](CCC(N)=O)NC(=O)[C@H](Cc3c[nH]cn3)NC(=O)C(C)(C)NC(=O)[C@H](Cc3c[nH]c4ccccc34)NC(=O)[C@H](CCC(=O)O)NC(=O)C(C)(C)NC(=O)[C@H]([C@@H](C)c3c[nH]c4cccc(F)c34)NC(=O)[C@@H]3C[C@H](F)CN3C(=O)CNC(=O)[C@H](Cc3ccc(C(=O)O)cc3)NC(=O)[C@H](Cc3ccncc3)NC2=O)cc1 [Example 317] (cyclo([AEF](Ac)[4Pal][Phe(4-COOH)]G[Pro(cis-4-F)][Trp(βS-Me,4-F)][Aib]EW[Aib]HQ[Dab]G[dPro(4R-(4-pyridylmethyl))]))
0.025 | CC(=O)NCCOc1ccc(C[C@@H]2NC(=O)[C@H]3C[C@@H](Cc4ccncc4)CN3C(=O)CNC(=O)[C@H](CCN)NC(=O)[C@H](CCC(N)=O)NC(=O)[C@H](CCc3ccncc3)NC(=O)C(C)(C)NC(=O)[C@H](Cc3c[nH]c4ccccc34)NC(=O)[C@H](CCC(=O)O)NC(=O)C(C)(C)NC(=O)[C@H]([C@@H](C)c3c[nH]c4cccc(F)c34)NC(=O)[C@@H]3C[C@H](F)CN3C(=O)CNC(=O)[C@H](Cc3ccc(C(=O)O)cc3)NC(=O)[C@H](Cc3ccncc3)NC2=O)cc1 [Example 318] (cyclo([AEF](Ac)[4Pal][Phe(4-COOH)]G[Pro(cis-4-F)][Trp(βS-Me,4-F)][Aib]EW[Aib][h4Pal]Q[Dab]G[dPro(4R-(4-pyridylmethyl))]))
0.017 | C[C@@H](c1c[nH]c2cccc(F)c12)[C@@H]1NC(=O)[C@@H]2C[C@H](F)CN2C(=O)CNC(=O)[C@H](Cc2ccc(C(=O)O)cc2)NC(=O)[C@H](Cc2ccncc2)NC(=O)[C@H](Cc2ccc(-c3ccc(C(=O)O)cc3)cc2)NC(=O)[C@H]2C[C@@H](Cc3ccc(F)cc3)CN2C(=O)CNC(=O)[C@H](CCN)NC(=O)[C@H](CCC(N)=O)NC(=O)[C@H](CN2CCOCC2)NC(=O)[C@@](C)(CC(=O)O)NC(=O)[C@H](Cc2c[nH]c3ccccc23)NC(=O)[C@H](CO)NC(=O)C(C)(C)NC1=O [Example 319] (cyclo([Bip(4'-COOH)][4Pal][Phe(4-COOH)]G[Pro(cis-4-F)][Trp(βS-Me,4-F)][Aib]SW[d(αMeD)][Ala(morpholin-4-yl)]Q[Dab]G[dPro(4R-Bzl(4-F))]))
0.015 | C[C@@H](c1c[nH]c2cccc(F)c12)[C@@H]1NC(=O)[C@@H]2C[C@H](F)CN2C(=O)CNC(=O)[C@H](Cc2ccc(C(=O)O)cc2)NC(=O)[C@H](Cc2ccncc2)NC(=O)[C@H](Cc2ccc(-c3ccc(C(=O)O)cc3)cc2)NC(=O)[C@H]2C[C@@H](Cc3ccc(F)cc3)CN2C(=O)CNC(=O)[C@H](CCN)NC(=O)[C@H](CCC(N)=O)NC(=O)[C@H](CC2CCNCC2)NC(=O)[C@@](C)(CC(=O)O)NC(=O)[C@H](Cc2c[nH]c3ccccc23)NC(=O)[C@H](CO)NC(=O)C(C)(C)NC1=O [Example 320] (cyclo([Bip(4'-COOH)][4Pal][Phe(4-COOH)]G[Pro(cis-4-F)][Trp(βS-Me,4-F)][Aib]SW[d(αMeD)][Ala(piperidin-4-yl)]Q[Dab]G[dPro(4R-Bzl(4-F))]))
0.015 | C[C@@H](c1c[nH]c2cccc(F)c12)[C@@H]1NC(=O)[C@@H]2C[C@H](F)CN2C(=O)CNC(=O)[C@H](Cc2ccc(C(=O)O)cc2)NC(=O)[C@H](Cc2ccncc2)NC(=O)[C@H](Cc2ccc(-c3ccc(C(=O)O)cc3)cc2)NC(=O)[C@H]2C[C@@H](Cc3ccc(F)cc3)CN2C(=O)CNC(=O)[C@H](CCN)NC(=O)[C@H](CCC(N)=O)NC(=O)[C@H](Cc2cnccn2)NC(=O)[C@@](C)(CC(=O)O)NC(=O)[C@H](Cc2c[nH]c3ccccc23)NC(=O)[C@H](CO)NC(=O)C(C)(C)NC1=O [Example 321] (cyclo([Bip(4'-COOH)][4Pal][Phe(4-COOH)]G[Pro(cis-4-F)][Trp(βS-Me,4-F)][Aib]SW[d(αMeD)][Ala(2-pyrazinyl)]Q[Dab]G[dPro(4R-Bzl(4-F))]))
0.013 | C[C@@H](c1c[nH]c2cccc(F)c12)[C@@H]1NC(=O)[C@@H]2C[C@H](F)CN2C(=O)CNC(=O)[C@H](Cc2ccc(C(=O)O)cc2)NC(=O)[C@H](Cc2ccncc2)NC(=O)[C@H](Cc2ccc(-c3ccc(C(=O)O)cc3)cc2)NC(=O)[C@H]2C[C@@H](Cc3ccc(F)cc3)CN2C(=O)CNC(=O)[C@H](CCN)NC(=O)[C@H](CCC(N)=O)NC(=O)[C@H](Cc2ccnnc2)NC(=O)[C@@](C)(CC(=O)O)NC(=O)[C@H](Cc2c[nH]c3ccccc23)NC(=O)[C@H](CO)NC(=O)C(C)(C)NC1=O [Example 322] (cyclo([Bip(4'-COOH)][4Pal][Phe(4-COOH)]G[Pro(cis-4-F)][Trp(βS-Me,4-F)][Aib]SW[d(αMeD)][Ala(4-Pyridazinyl)]Q[Dab]G[dPro(4R-Bzl(4-F))]))
0.012 | C[C@@H](c1c[nH]c2cccc(F)c12)[C@@H]1NC(=O)[C@@H]2C[C@H](F)CN2C(=O)CNC(=O)[C@H](Cc2ccc(C(=O)O)cc2)NC(=O)[C@H](Cc2ccncc2)NC(=O)[C@H](Cc2ccc(-c3ccc(C(=O)O)cc3)cc2)NC(=O)[C@H]2C[C@@H](Cc3ccc(F)cc3)CN2C(=O)CNC(=O)[C@H](CCN)NC(=O)[C@H](CCC(N)=O)NC(=O)[C@H](Cc2cccnc2)NC(=O)[C@@](C)(CC(=O)O)NC(=O)[C@H](Cc2c[nH]c3ccccc23)NC(=O)[C@H](CO)NC(=O)C(C)(C)NC1=O [Example 323] (cyclo([Bip(4'-COOH)][4Pal][Phe(4-COOH)]G[Pro(cis-4-F)][Trp(βS-Me,4-F)][Aib]SW[d(αMeD)][3Pal]Q[Dab]G[dPro(4R-Bzl(4-F))]))
0.013 | C[C@@H](c1c[nH]c2cccc(F)c12)[C@@H]1NC(=O)[C@@H]2C[C@H](F)CN2C(=O)CNC(=O)[C@H](Cc2ccc(C(=O)O)cc2)NC(=O)[C@H](Cc2ccncc2)NC(=O)[C@H](Cc2ccc(-c3ccc(C(=O)O)cc3)cc2)NC(=O)[C@H]2C[C@@H](Cc3ccc(F)cc3)CN2C(=O)CNC(=O)[C@H](CCN)NC(=O)[C@H](CCC(N)=O)NC(=O)[C@H](Cc2ccncc2)NC(=O)[C@@](C)(CC(=O)O)NC(=O)[C@H](Cc2c[nH]c3ccccc23)NC(=O)[C@H](CO)NC(=O)C(C)(C)NC1=O [Example 324] (cyclo([Bip(4'-COOH)][4Pal][Phe(4-COOH)]G[Pro(cis-4-F)][Trp(βS-Me,4-F)][Aib]SW[d(αMeD)][4Pal]Q[Dab]G[dPro(4R-Bzl(4-F))]))
0.027 | C[C@@H](c1c[nH]c2cccc(F)c12)[C@@H]1NC(=O)[C@@H]2C[C@H](O)CN2C(=O)CNC(=O)[C@H](Cc2ccc(C(=O)O)cc2)NC(=O)[C@H](Cc2ccncc2)NC(=O)[C@H](Cc2ccc(-c3ccc(C(=O)O)cc3)cc2)NC(=O)[C@H]2[C@@H](Cc3ccncc3)CCN2C(=O)CNC(=O)[C@H](CCN)NC(=O)[C@H](CCC(N)=O)NC(=O)[C@H](Cc2cncnc2)NC(=O)C(C)(C)NC(=O)[C@H](Cc2c[nH]c3ccccc23)NC(=O)[C@H](CO)NC(=O)C(C)(C)NC1=O [Example 325] (cyclo([Bip(4'-COOH)][4Pal][Phe(4-COOH)]G[cisHyp][Trp(βS-Me,4-F)][Aib]SW[Aib][Ala(pyrimidin-5-yl)]Q[Dab]G[X4]))
